Assay results: PubChem BioAssay (NCI)
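Tested at 5 concentrations; 48 h exposure; 96-well plates; endpoints linearly interpolated, else capped at highest concentration. GI50: concentration for 50% inhibition of growth. The concentration for full growth arrest is given as TGI.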

Columns and labels:
Assay in all cases: NCI anticancer screen, dose series, 48 h
786-0 renal = tested on: 786-0 renal
A549 NSCLC = tested on: A549 NSCLC
CCRF-CEM leukemia = tested on: CCRF-CEM leukemia
COLO 205 colon = tested on: COLO 205 colon
DLD-1 colon = tested on: DLD-1 colon
DMS 114 small cell lung = tested on: DMS 114 small cell lung
EKVX NSCLC = tested on: EKVX NSCLC
HCC-2998 colon = tested on: HCC-2998 colon
HCT-15 colon = tested on: HCT-15 colon
HOP-18 NSCLC = tested on: HOP-18 NSCLC
HOP-92 NSCLC = tested on: HOP-92 NSCLC
HT29 colon = tested on: HT29 colon
IGROV1 ovarian = tested on: IGROV1 ovarian
K-562 leukemia = tested on: K-562 leukemia
KM12 colon = tested on: KM12 colon
KM20L2 colon = tested on: KM20L2 colon
M14 melanoma = tested on: M14 melanoma
MALME-3M melanoma = tested on: MALME-3M melanoma
MOLT-4 leukemia = tested on: MOLT-4 leukemia
NCI-H226 lung = tested on: NCI-H226 lung
NCI-H23 lung = tested on: NCI-H23 lung
NCI-H460 lung = tested on: NCI-H460 lung
NCI-H522 lung = tested on: NCI-H522 lung
OVCAR-3 ovarian = tested on: OVCAR-3 ovarian
OVCAR-4 ovarian = tested on: OVCAR-4 ovarian
OVCAR-5 ovarian = tested on: OVCAR-5 ovarian
RPMI-8226 leukemia = tested on: RPMI-8226 leukemia
RXF 393 renal = tested on: RXF 393 renal
SF-268 CNS = tested on: SF-268 CNS
SF-539 CNS = tested on: SF-539 CNS
SK-MEL-28 melanoma = tested on: SK-MEL-28 melanoma
SK-MEL-5 melanoma = tested on: SK-MEL-5 melanoma
SK-OV-3 ovarian = tested on: SK-OV-3 ovarian
SN12C renal = tested on: SN12C renal
SNB-19 CNS = tested on: SNB-19 CNS
SNB-75 CNS = tested on: SNB-75 CNS
SW-620 colon = tested on: SW-620 colon
TK-10 renal = tested on: TK-10 renal
U251 CNS = tested on: U251 CNS
UACC-62 melanoma = tested on: UACC-62 melanoma
UO-31 renal = tested on: UO-31 renal
XF 498 CNS = tested on: XF 498 CNS

## CN1CCC(c2c(O)cc(O)c3c(=O)cc(-c4ccccc4Cl)oc23)C(O)C1 (configuration not stated)
786-0 renal
  TGI: > 100000 nM
A549 NSCLC
  TGI: > 100000 nM
CCRF-CEM leukemia
  TGI: 19300 nM
COLO 205 colon
  TGI: 255 nM
DLD-1 colon
  TGI: > 100000 nM
DMS 114 small cell lung
  TGI: 393 nM
EKVX NSCLC
  TGI: 135 nM
HCC-2998 colon
  TGI: 454 nM
HCT-15 colon
  GI50: 50.6 nM
  TGI: > 100000 nM
HOP-18 NSCLC
  TGI: > 100000 nM
HOP-92 NSCLC
  TGI: 337 nM
HT29 colon
  TGI: > 56300 nM
IGROV1 ovarian
  GI50: 82.7 nM
  TGI: > 100000 nM
K-562 leukemia
  GI50: 297 nM
  TGI: > 100000 nM
KM12 colon
  TGI: > 100000 nM
KM20L2 colon
  GI50: 262 nM
  TGI: > 100000 nM
M14 melanoma
  TGI: 236 nM
MALME-3M melanoma
  TGI: 598 nM
MOLT-4 leukemia
  TGI: 198 nM
NCI-H226 lung
  TGI: 305 nM
NCI-H23 lung
  TGI: 208 nM
NCI-H460 lung
  TGI: > 100000 nM
NCI-H522 lung
  TGI: 448 nM
OVCAR-3 ovarian
  GI50: < 10 nM
  TGI: 22.3 nM
OVCAR-4 ovarian
  TGI: 473 nM
OVCAR-5 ovarian
  GI50: 68.7 nM
  TGI: 602 nM
RPMI-8226 leukemia
  TGI: 28.5 nM
RXF 393 renal
  TGI: 31.2 nM
SF-268 CNS
  TGI: 238 nM
SF-539 CNS
  GI50: 288 nM
  TGI: > 100000 nM
SK-MEL-28 melanoma
  TGI: 600 nM
SK-MEL-5 melanoma
  TGI: 107 nM
SK-OV-3 ovarian
  TGI: > 73400 nM
SN12C renal
  TGI: > 100000 nM
SNB-19 CNS
  TGI: > 100000 nM
SNB-75 CNS
  GI50: 48.2 nM
  TGI: 180 nM
SW-620 colon
  GI50: 53.2 nM
  TGI: > 100000 nM
TK-10 renal
  TGI: > 100000 nM
U251 CNS
  TGI: > 100000 nM
UACC-62 melanoma
  GI50: 50.6 nM
  TGI: 197 nM
UO-31 renal
  TGI: > 100000 nM
XF 498 CNS
  TGI: 584 nM
